{
  "source": "ChEMBL document CHEMBL1152000",
  "about": "“Anti-allergy agents. 3. Angular tricyclic ether derivatives of the 1,8-naphthyridin-2(1H)-one ring system” (1994)",
  "type_in_all_cases": "functional",
  "key": {"[1]": {"species_on_record": "Cavia porcellus", "assay": "In vitro percent inhibition of LTD4 release from sensitized guinea pig lung fragment at dose of 3 uM"}, "[2]": {"test_system": "Cavia porcellus", "assay": "In vivo percent inhibition of ovalbumin induced bronchospasm in sensitized guinea pig after peroral administration at dose of 1 mg/kg for multiple dose", "conditions": "route oral"}, "[3]": {"test_system": "Cavia porcellus", "assay": "In vivo percent inhibition of ovalbumin induced bronchospasm in sensitized guinea pig after peroral administration at dose of 2 mg/kg for multiple dose", "conditions": "route oral"}, "[4]": {"test_system": "Cavia porcellus", "assay": "In vivo percent inhibition of ovalbumin induced bronchospasm in sensitized guinea pig after peroral administration at dose of 2 mg/kg for single dose", "conditions": "route oral"}, "[5]": {"test_system": "Cavia porcellus", "assay": "In vivo percent inhibition of ovalbumin induced bronchospasm in sensitized guinea pig after peroral administration at dose of 10 mg/kg for single dose", "conditions": "route oral"}, "[6]": {"species_on_record": "Cavia porcellus", "assay": "In vitro percent inhibition of LTD4 release from sensitized guinea pig lung fragment at dose of 10 uM"}, "[7]": {"species_on_record": "Cavia porcellus", "assay": "In vitro percent inhibition of LTD4 release from sensitized guinea pig lung fragment at dose of 1 uM"}, "[8]": {"test_system": "Cavia porcellus", "assay": "In vivo percent inhibition of ovalbumin induced bronchospasm in sensitized guinea pig after peroral administration at dose of 0.25 mg/kg for single dose", "conditions": "route oral"}, "[9]": {"test_system": "Cavia porcellus", "assay": "In vivo percent inhibition of ovalbumin induced bronchospasm in sensitized guinea pig after peroral administration at dose of 0.5 mg/kg for multiple dose", "conditions": "route oral"}, "[10]": {"test_system": "Cavia porcellus", "assay": "In vivo percent inhibition of ovalbumin induced bronchospasm in sensitized guinea pig after peroral administration at dose of 1 mg/kg for single dose", "conditions": "route oral"}, "[11]": {"test_system": "Cavia porcellus", "assay": "In vivo percent inhibition of ovalbumin induced bronchospasm in sensitized guinea pig after peroral administration at dose of 0.5 mg/kg for single dose", "conditions": "route oral"}, "[12]": {"test_system": "Cavia porcellus", "assay": "In vivo percent inhibition of ovalbumin induced bronchospasm in sensitized guinea pig after peroral administration at dose of 6.25 mg/kg for multiple dose", "conditions": "route oral"}, "[13]": {"test_system": "Cavia porcellus", "assay": "In vivo percent inhibition of ovalbumin induced bronchospasm in sensitized guinea pig after peroral administration at dose of 12.5 mg/kg for multiple dose", "conditions": "route oral"}, "[14]": {"test_system": "Cavia porcellus", "assay": "In vivo percent inhibition of ovalbumin induced bronchospasm in sensitized guinea pig after peroral administration at dose of 25 mg/kg for single dose", "conditions": "route oral"}, "[15]": {"test_system": "Cavia porcellus", "assay": "In vivo percent inhibition of ovalbumin induced bronchospasm in sensitized guinea pig after peroral administration at dose of 3.13 mg/kg for multiple dose", "conditions": "route oral"}, "[16]": {"test_system": "Cavia porcellus", "assay": "In vivo percent inhibition of ovalbumin induced bronchospasm in sensitized guinea pig after peroral administration at dose of 12 mg/kg for single dose", "conditions": "route oral"}, "[17]": {"test_system": "Cavia porcellus", "assay": "In vivo percent inhibition of ovalbumin induced bronchospasm in sensitized guinea pig after peroral administration at dose of 3 mg/kg for single dose", "conditions": "route oral"}, "[18]": {"test_system": "Cavia porcellus", "assay": "In vivo percent inhibition of ovalbumin induced bronchospasm in sensitized guinea pig after peroral administration at dose of 5 mg/kg for single dose", "conditions": "route oral"}},
  "data": [
    {"smiles": "Cc1ccc(-n2c(=O)c3c(c4cccnc42)OCCC3)cc1", "values": [
      {"measurement": "inhibition at 3 µM", "setting": "[1]", "value": 27, "unit": "%"}
    ]},
    {"smiles": "COc1ccc(-n2c(=O)c3c(c4cccnc42)OCC3)cc1", "values": [
      {"measurement": "inhibition at 3 µM", "setting": "[1]", "value": 17, "unit": "%"}
    ]},
    {"smiles": "O=c1c2c(c3cccnc3n1-c1cccc(Cl)c1)OCC2", "values": [
      {"measurement": "inhibition at 3 µM", "setting": "[1]", "value": 71, "unit": "%"},
      {"measurement": "inhibition in vivo at 1 mg/kg", "setting": "[2]", "value": 21, "unit": "%"},
      {"measurement": "inhibition in vivo at 2 mg/kg", "setting": "[3]", "value": 62, "unit": "%"},
      {"measurement": "inhibition in vivo at 2 mg/kg", "setting": "[4]", "value": 87, "unit": "%"},
      {"measurement": "inhibition in vivo at 10 mg/kg", "setting": "[5]", "value": 93, "unit": "%"}
    ]},
    {"smiles": "Cc1ccc(-n2c(=O)c3c(c4cccnc42)OCC3)cc1", "values": [
      {"measurement": "inhibition at 3 µM", "setting": "[1]", "value": 28, "unit": "%"},
      {"measurement": "inhibition at 10 µM", "setting": "[6]", "value": 59, "unit": "%"}
    ]},
    {"smiles": "O=c1c2c(c3cccnc3n1-c1ccccc1)OCCCC2", "values": [
      {"measurement": "inhibition at 3 µM", "setting": "[1]", "value": 75, "unit": "%"},
      {"measurement": "inhibition in vivo at 2 mg/kg", "setting": "[4]", "value": 71, "unit": "%"}
    ]},
    {"smiles": "O=c1c2c(c3cccnc3n1-c1ccc(Cl)cc1)OCC2", "values": [
      {"measurement": "inhibition at 3 µM", "setting": "[1]", "value": 33, "unit": "%"}
    ]},
    {"smiles": "CC1Cc2c(c3cccnc3n(-c3cccc(Cl)c3)c2=O)O1", "note": "(stereo unspecified)", "values": [
      {"measurement": "inhibition in vivo at 2 mg/kg", "setting": "[4]", "value": 38, "unit": "%"},
      {"measurement": "inhibition at 1 µM", "setting": "[7]", "value": 64, "unit": "%"}
    ]},
    {"smiles": "O=c1c2c(c3cccnc3n1-c1ccc(Cl)cc1)OCCC2", "values": [
      {"measurement": "inhibition at 3 µM", "setting": "[1]", "value": 33, "unit": "%"}
    ]},
    {"smiles": "CC1Cc2c(c3cccnc3n(-c3ccccc3)c2=O)O1", "note": "(stereo unspecified)", "values": [
      {"measurement": "inhibition at 10 µM", "setting": "[6]", "value": 60, "unit": "%"}
    ]},
    {"smiles": "COc1ccc(-n2c(=O)c3c(c4cccnc42)OCCC3)cc1", "values": [
      {"measurement": "inhibition at 3 µM", "setting": "[1]", "value": 28, "unit": "%"}
    ]},
    {"smiles": "O=c1c2c(c3cccnc3n1-c1cccc(Cl)c1)OCCCC2", "values": [
      {"measurement": "inhibition in vivo at 0.25 mg/kg", "setting": "[8]", "value": 27, "unit": "%"},
      {"measurement": "inhibition in vivo at 0.5 mg/kg", "setting": "[9]", "value": 50, "unit": "%"},
      {"measurement": "inhibition at 3 µM", "setting": "[1]", "value": 62, "unit": "%"},
      {"measurement": "inhibition in vivo at 1 mg/kg", "setting": "[10]", "value": 74, "unit": "%"},
      {"measurement": "inhibition in vivo at 2 mg/kg", "setting": "[4]", "value": 85, "unit": "%"},
      {"measurement": "inhibition at 1 µM", "setting": "[7]", "value": 100, "unit": "%"},
      {"measurement": "inhibition in vivo at 0.5 mg/kg", "setting": "[11]", "value": 62, "unit": "%"}
    ]},
    {"smiles": "O=c1c2c(c3cccnc3n1-c1ccccc1)OCCC2", "values": [
      {"measurement": "inhibition in vivo at 6.25 mg/kg", "setting": "[12]", "value": 51, "unit": "%"},
      {"measurement": "inhibition at 3 µM", "setting": "[1]", "value": 26, "unit": "%"},
      {"measurement": "inhibition in vivo at 12.5 mg/kg", "setting": "[13]", "value": 43, "unit": "%"},
      {"measurement": "inhibition in vivo at 25 mg/kg", "setting": "[14]", "value": 62, "unit": "%"},
      {"measurement": "inhibition at 10 µM", "setting": "[6]", "value": 62, "unit": "%"},
      {"measurement": "inhibition in vivo at 3.13 mg/kg", "setting": "[15]", "value": 20, "unit": "%"}
    ]},
    {"smiles": "O=c1c2c(c3cccnc3n1-c1ccccc1)OCC2", "values": [
      {"measurement": "inhibition in vivo at 6.25 mg/kg", "setting": "[12]", "value": 65, "unit": "%"},
      {"measurement": "inhibition at 3 µM", "setting": "[1]", "value": 54, "unit": "%"},
      {"measurement": "inhibition in vivo at 12.5 mg/kg", "setting": "[13]", "value": 90, "unit": "%"},
      {"measurement": "inhibition in vivo at 25 mg/kg", "setting": "[14]", "value": 79, "unit": "%"},
      {"measurement": "inhibition at 10 µM", "setting": "[6]", "value": 72, "unit": "%"},
      {"measurement": "inhibition in vivo at 12 mg/kg", "setting": "[16]", "value": 86, "unit": "%"},
      {"measurement": "inhibition in vivo at 3 mg/kg", "setting": "[17]", "value": 42, "unit": "%"}
    ]},
    {"smiles": "O=c1c2c(c3cccnc3n1-c1ccc(Cl)c(Cl)c1)OCCC2", "values": [
      {"measurement": "inhibition at 3 µM", "setting": "[1]", "value": 48, "unit": "%"}
    ]},
    {"smiles": "O=c1c2c(c3cccnc3n1-c1ccc(Cl)c(Cl)c1)OCC2", "values": [
      {"measurement": "inhibition at 3 µM", "setting": "[1]", "value": 62, "unit": "%"},
      {"measurement": "inhibition in vivo at 5 mg/kg", "setting": "[18]", "value": 0, "unit": "%"},
      {"measurement": "inhibition at 10 µM", "setting": "[6]", "value": 63, "unit": "%"}
    ]}
  ]
}
